Peptide text beside a SMILES is read from it. * marks the point of attachment. Cbz = O=C(OCc1ccccc1)*

Assay [1] has as its system HeLa cells expressing the probe reagent mKO2-Nrf2—100-T2A-Keap1. In words: Evaluation of a probe reagent by imaging of a cell (mKO2 fluorescence, time-lapse microscope). In kind it is cell-based, human. The method, then:
The prepared cDNA was transfected into HeLa cells that were cultured on a glass bottom dish by using FuGENE HD (manufactured by Roche Applied Science). The medium was replaced by the fresh medium 12 hours after the transfection. […] This microscope was equipped with a cooled CCD camera so that fluorescent images of a cell were able to be captured over time.
In order to verify that the constructed probe reagent responded correctly to oxidative stress as intended, diethylmaleate (DEM), which is an oxidative stress inducer, was added at a concentration of 100 μM, and the fluorescent intensity of mKO2 (ex; BP520-540HQ, em; BP555-600HQ) was measured. […] When ethanol, a solvent, was added at 0.1% as a control, the fluorescent intensity of mKO2 was not increased.
In order to verify that this probe reagent was degraded by a proteasome in a cell under conditions without being exposed to oxidative stress, an experiment using a proteasome inhibitor, MG132, was carried out. […] In contrast, after dimethylsulfoxide (DMSO), a solvent, was added at 0.1% as a control, the fluorescent intensity of mKO2 was not increased (FIG. 5).

In assay [2] the test system is mKO2-Nrf2 fusion molecule in HeLa cells. In words: Evaluation of a probe reagent by Western blotting using an anti-Nrf2 antibody. The settings on record: MG132 10 μM versus 0.1% DMSO; FIG. 6. In kind it is cell-based, human. As to the method: First, to confirm that this probe reagent was separated into an mKO2-Nrf2 fusion molecule and Keap1 by the T2A peptide in a cell, the following experiments were performed. The cDNA, which was prepared using FuGENE® HD (Roche Applied Science Inc.), was transfected into HeLa cells cultured on a 35-mm dish. The medium was replaced by the fresh medium 12 hours after the transfection. After the 12 hours, DEM was added at a concentration of 100 μM, and ethanol was added at 0.1% as a control. The cells were cultured for further 8 hours. After that, Western blotting was conducted by using an anti-Nrf2 antibody (Santa Cruz Inc.). Both in the case of adding DEM and the case of adding ethanol, the band of the mKO2-Nrf2 fusion molecule was detected, but the band of the probe reagent comprising linked Keap1 was hardly observed.
Next, the fact that this probe reagent was degraded by a proteasome in a cell was confirmed by performing Western blotting. A proteasome inhibitor, MG132, was added at a concentration of 10 μM to HeLa cells that had been cultured in a similar manner. DMSO was added at 0.1% to control cells as well.
A general note: Immunoblotting shows a protein as a band on a membrane.

“probe reagent: fusion protein: fluorescent protein mKO2, Nrf2 amino acids 1 to 100, self-cleaved peptide T2A and Keap1; encoded by SEQ ID NO: 7”: the “fluorescence of cells expressing the probe reagent before the experiment” value in assay [1] (no oxidative stress loaded, 24 hours after medium change) is “only fluorescence at the background light level was detected”. `CC(C)C[C@@H](C=O)NC(=O)[C@H](CC(C)C)NC(=O)[C@H](CC(C)C)NC(=O)OCc1ccccc1` [MG132] (Cbz-Leu-Leu-Leu-aldehyde): the “fluorescent intensity of mKO2” value in assay [1] (MG132 added at 10 μM, control 0.1% DMSO gave no increase, FIG. 5) is given as “increase in the fluorescent intensity of mKO2 was observed”. The “band of the mKO2-Nrf2 fusion molecule (amount of probe reagent)” value in assay [2] was “strong band was detected compared to the case of adding DMSO”. Regarding `CCOC(=O)/C=C\C(=O)OCC` [DEM, diethylmaleate], in assay [1] (DEM added at 100 μM, HeLa cells transfected with probe cDNA, control 0.1% ethanol gave no increase, FIG. 3), the “increase in the fluorescent intensity of mKO2” value is reported as “more than 10 times”.

These data come from patent US8865124B2, “Probe reagent for measuring oxidative stress” (Japan Science and Technology Agency, priority 2008, dated 2014).
